From PMC3338619, “Ligand Binding Study of Human PEBP1/RKIP: Interaction with Nucleotides and Raf-1 Peptides Evidenced by NMR and Mass Spectrometry” (PLoS ONE, 2012)

Experiments:
hPEBP1 [1] = biological target: T1, hPEBP1 (Homo sapiens, UniProt P30086); assay: 15N-1H HSQC NMR titration of ligands with hPEBP1 (KD from CSP fitting); assay type: binding
T1 construct: all residues except Met1, Val3, Asp35, Gln45, Lys47 and Lys187 (total residues: 187;); made in house; host or cells: E. coli BL21 (DE3), pET31b
T1 sequence (P30086 whole entry): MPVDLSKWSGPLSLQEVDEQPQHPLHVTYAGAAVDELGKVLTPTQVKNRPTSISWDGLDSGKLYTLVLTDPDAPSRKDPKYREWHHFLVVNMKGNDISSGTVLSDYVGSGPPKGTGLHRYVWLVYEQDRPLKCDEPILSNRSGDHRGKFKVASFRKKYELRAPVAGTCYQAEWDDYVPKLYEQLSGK
Method: The interactions between hPEBP1 100–270 µM and the four selected ligands were investigated by ^15N-^1H heteronuclear single quantum coherence (HSQC) NMR experiments with a sensitivity enhancement and gradient selected coherence. ^1H, ^15N HSQC spectra were recorded at 20 or 30°C on a Bruker 500 MHz or a Varian Inova 600 MHz spectrometer. Two experimental sets of conditions were tested: MES 10 mM pH 6.5 at 20°C, and HEPES 10 mM, NaCl 100 mM pH 7.5 at 30°C.
In the simple case of protein-ligand interactions, the free and the bound states are observed during the titration. The interpretation of an NMR spectrum, such as an HSQC, depends on the rate of exchange between the bound and the free forms. Three different cases can be observed. If the complex rate of dissociation is very slow, two separate resonances are observed at the positions corresponding to the chemical shifts characteristic of the two states (free and bound). During the titration, the intensity of the free resonance decreases while the bound resonance one appears and goes up. This regime corresponds to slow chemical exchange on the NMR time scale. If the complex rate of dissociation is very fast, only a single resonance is observed, whose position is the average of the chemical shifts of the two states, weighted by their relative populations. In this case, Chemical Shift Perturbations (CSP) are observed, i.e. the chemical shift evolves as the ligand concentration increases. This regime corresponds to fast exchange on the NMR time scale, and is typical for weaker affinity complexes. In the intermediate chemical exchange case, in addition to CSP, complex changes will affect the line shape that results in the observation of very broad signals with low intensity.
In the fast exchange regime, CSP can be measured from ^15N-HSQC spectra using the equation: [drawing 1] (1) with δ being the chemical shift in ppm.
A threshold value was estimated in order to determine significant CSP. In a first step, all the CSP are considered and the average (<CSP>) plus two times the standard deviation (σ) is calculated. Then, the highest CSP (CSP≥<CSP>+2σ) are removed from the data and new average and new standard deviation calculated. The operation is repeated until the convergence is reached.
Once the residues involved in the binding were selected, the experimental data were fitted with the quadratic equation 2 using SigmaPlot 9.0 in order to obtain the dissociation constant value (KD): [drawing 2] (2) where [P]0 and [L] are the total protein and ligand concentrations, respectively. A KD value was estimated for each residue involved in the binding, and then an average was calculated.

hPEBP1 [2] = biological target: T1, hPEBP1; assay: Native mass spectrometry KD determination (bound protein fraction); assay type: binding; conditions: ammonium bicarbonate 20 mM pH 7.4/37°C, no NaCl; read-out: MS KD
Method: Non-labeled recombinant hPEBP1 purified as previously described was used for mass spectrometry analysis. To prevent Na^+ adduct formation, the commercial GTP and FMN nucleotides used in native MS were desalted. For this purpose, a protocol derived from the RNA-desalting procedure of Limbach et al. (1995) was set up.
All MS measurements were performed in an ESI-ion trap model Esquire HCT or Ultra HCT PTM Discovery (Bruker, Bremen, Germany), or in a maXis ESI-UHR-Qq-TOF (Bruker). Complexes were formed by incubating hPEBP1 with a range of ligand concentrations in ammonium bicarbonate 20 mM/formic acid buffer, pH 7.4 at 37°C or in ammonium acetate 20 mM, pH 6.6 at 20°C. After incubation, samples were treated with a Zeba micro gel filtration device with a 7 kDa cut-off (Thermo Scientific, Waltham, MA) prior to MS measurement, or analyzed directly in MS. The KD was determined by measuring the bound protein fraction by native MS. Details of the development of the native MS method for KD determination are described in the work of Jaquillard et al. (in press).

rPEBP1 = test system: rPEBP1; design: method as in PMID 20463977; conditions: pH 7.4/NaCl 100 mM/30°C, 130 mM GTP for 75 µM rPEBP1; cited from earlier work
[3] = HEPES 10 mM pH 7.5/NaCl 100 mM/30°C (near physiological conditions)

| Structure (SMILES) | Kd (hPEBP1 [1]; [3]) | Kd (hPEBP1 [1]; MES 10 mM pH 6.5/20°C) | Kd (hPEBP1 [2]) | chemical shift perturbations for rPEBP1 (rPEBP1) | Kd (hPEBP1 [1]; HEPES 10 mM pH 7.5/20°C, from CSP data of 9 residues in fast exchange) |
| --- | --- | --- | --- | --- | --- |
| O=C1N[C@@H](Cc2ccccc2)CO1 [locostatin precursor, (S)-4-benzyl-2-oxazolidinone] | 173 ± 19 µM | – | – | – | – |
| Nc1nc2c(ncn2[C@@H]2O[C@H](COP(=O)(O)OP(=O)(O)OP(=O)(O)O)[C@@H](O)[C@H]2O)c(=O)[nH]1 [GTP, Guanosine triphosphate] | 3420 ± 1970 µM | 669 ± 140 µM | 89 ± 48 µM | did not cause significant chemical shift perturbations | – |
| Cc1cc2nc3c(=O)[nH]c(=O)nc-3n(C[C@H](O)[C@H](O)[C@H](O)COP(=O)(O)O)c2cc1C [FMN, flavin mononucleotide] | 252 ± 84 µM | 14 ± 9 µM | 5 ± 4 µM | – | 14 ± 11 µM |
